US10987357B2, “Aerosolized fluoroquinolones and uses thereof” (Horizon Orphan, LLC, priority 2005, dated 2021)
In brackets after ≈: the same amount, converted by molar mass. Where two headings read alike, the source gives them in different places.

Legend:
physchem [1] = test: physchem
Experimental: This solution was titrated with 1 N HCl. Measured aliquots of HCl were added and the pH recorded after each addition. Titration was continued till a pH of 1.
Vep volume of titrant added till the equivalence point; [OH^−]=hydroxide ion concentration=Kw/[…]; [H^+]=hydronium ion concentration=10^−pH.

[2] = Tolerability of aerosol levofloxacin in a healthy human subject
[3] = system: P. aeruginosa strain PAM 1723; test: Mouse lung infection efficacy model; details: Pseudomonas aeruginosa, PAM1723, in Mus musculus
Experimental: The inoculum is adjusted to ca. 5×10^6 CFU/ml by correlation of absorbance at 600 nm with predetermined plate counts. […] On day 5, mice are infected by an intratracheal instillation of 0.05 ml of inoculum while under isoflurane anesthesia (5% isoflurane in oxygen running at 4 L/min). […] Mice are sacrificed 1 and 4 hours after treatment, their lungs removed, homogenized and plated to determine colony counts.

PAM1032 [4] = format: cell-based, P. aeruginosa
Experimental: Overnight cultures were grown aerobically overnight in Mueller-Hinton Broth and next diluted 1:10000 in MEM which filled growth flasks to the very top. Cultures were grown without shaking to OD˜0.3 at 37° C. […] Other than decreased aeration, antibiotic concentration, time of exposure, and determination of viable cell counts were the same as in Experiments 1 and 2.

PAM1020 [5] = test: microbe, parasite or virus in culture; format: cell-based, P. aeruginosa; details: Pseudomonas aeruginosa, read-out: Levofloxacin MIC
Text: (§1) . Those were chosen based on what is known about conditions and growth of PA in a cystic fibrosis (CF) lung. Four isogenic strains of P. aeruginosa were used for these experiments (Table 2).

physchem [6] = test: physchem; remark: listed apart in the source
Text: The buffers used were HCL (pH 1,2), acetate (pH 4,5), phosphate (pH 6,7,8) and borate (9,10).

PAM1032 [7] = test: In vitro pharmacodynamic (hollow fiber) model of infection; format: cell-based, Pseudomonas aeruginosa; details: for reduction in bacterial counts: half-life 10 minutes
Experimental: (§2) The in vitro pharmacodynamic model consists of a central (analogous “serum” compartment) and peripheral (“extravascular”) compartment. The peripheral compartments consist of artificial capillary units (Unisyn, Hopkinton, Mass.) arranged in series with the central compartment. Each capillary unit has a bundle of small semi-permeable fibers with a molecular size retention of ca. 10,000 MW to allow passage of nutrients but not bacteria. The entire system is set up in a dry heat incubator adjusted to 37° C.
(§3) Both the central and peripheral compartments were filled with Mueller-Hinton broth. Each peripheral compartment (capillary unit and tubing) contained ca. 23 ml of growth medium.
(§4) Bacteria were introduced into the peripheral chamber of the model and allowed to grow for 2 hours prior to the first “dose” of drug. Drug doses were administered into the central compartment and pumped to peripheral chambers by a peristaltic pump. Concentrations in the model declined according to first order elimination (half-life) by dilution of the central compartment with drug free medium introduced by an additional peristaltic pump adjusted to the desired clearance.
(§5) Samples (0.3 ml) were collected from peripheral compartments at various intervals for determination of drug and bacterial concentrations. Samples were collected from the peripheral compartments and assayed for drug concentrations by HPLC.
(§6) Of the resulting dilution, 2.3 ml was injected into each peripheral chamber of the hollow-fiber bioreactors (Unisyn, Hopkinton, Mass.).

PAM1582 [8] = format: cell-based, Pseudomonas aeruginosa; details: for reduction in bacterial counts: half-life 10 minutes
Experimental: as §2, §3, §4, §5, §6

[9] = in vivo; cited from earlier work
[10] = system: colony biofilms of PAM1032; format: cell-based, P. aeruginosa; details: 10 minutes of exposure
Experimental: The viable cell numbers were enumerated by plating serially diluted samples (in duplicates) on MHB plates by the drop (10 ul) plating method.

[11] = 4 day GLP inhalation toxicology study
PAM1020 [12] = test: Time-kill, exponentially grown cells (Experiment 1); format: cell-based, P. aeruginosa; details: 64 ug/ml ([…] MIC), 10 minutes
Experimental: At appropriate times, 1 ml of each exposure culture was centrifuged for 2 minutes, the pellet was washed twice with 1 ml of drug-free MHB, and re-suspended in 1 ml of MHB. The viable cell numbers were enumerated by plating serially diluted samples (in duplicates) on MHB plates by the drop (10 ul) plating method. The limit of detection was 100 CFU/ml. Killing is reported as the log reduction calculated relative to cell count at the time of initiation of antibiotic exposure. Relative antibiotic concentrations (relative to MIC of the corresponding strains) are used.

[13] = 4 day non-GLP ascending dose inhalation toxicology study; details: 24 hours after the last dose
[14] = in vivo
Experimental: In the second test, the tolerability and taste of a small aerosol sample from a 0.5 ml aliquot of the test formulation was determined in a single healthy human volunteer, following nebulization in a PARI eFlow nebulizer (Table 12).
The tolerability and taste of the drug during a very brief administration period and for a period of 10 minutes post administration were monitored. Tolerability parameters were of the following types: (i) cough, cough sensation, or sneezing (ii) irritation, burning or tightness of throat, (ii) irritation or runniness in nasal passages or eyes, (iii) irritation, burning or tightness of the lungs or shortness of breadth, and (iv) dizziness, headache, nausea or other systemic effects.

PAM1582 [15] = test: Levofloxacin MIC of hollow fiber test strain; format: cell-based; details: Pseudomonas aeruginosa, read-out: Levofloxacin MIC
Text: Pseudomonas aeruginosa PAM1032 and PAM1582. […]

[16] = Rat pharmacokinetic model (IV vs microspray aerosol, intratracheal); format: in vivo, rats; details: 10 mg/kg; for AUC: epithelial lining fluid (ELF)
Experimental: […] Blood samples are taken at various times over 3 hours to determine the plasma pharmacokinetic parameters. […] The plasma and tissue concentrations are determined by an HPLC method and the data are then fit using WinNonlin.

[17] = 28-day GLP inhalation toxicology study
PAM1032 [18] = format: cell-based, P. aeruginosa; details: PAM1032, genotype nalB
Text: as §1

With `C[C@H]1COc2c(N3CCN(C)CC3)c(F)cc3c(=O)c(C(=O)O)cn1c23` [Levofloxacin, levofloxacin] the “acidic pKa” value (physchem [1]) was roughly 1.6, the pKb (physchem [1]) was 7.7 and the pKa (physchem [1]; acidic pKa) was less than 2. The pKa (physchem [1]; pKa) was 6.3, the pKa (physchem [1]; pKa of the basic site as stated in text) was roughly 6.8 and the “tolerability of hypotonic solutions for inhalation” value ([2]; concentrations greater than 10 mg/ml) was “poorly tolerated”. The overall tolerability ([2]; first test) was “well tolerated”, the acute tolerability ([2]; second test: 4 ml of 18.75 mg/mL, Aerogen Small, estimated RDD 35 mg) was “very comparable to the first test” and the “adverse effects in the throat, airway or lungs” value ([2]; third test: 4 mL of 18.75 mg/mL, PARI Large, estimated RDD ~55 mg) was “no adverse effects in the throat, airway or lungs”. It also gave a log reduction at 25 mg/kg ([3]; 1 h, read-out: DeltaLOG CPU 1 hr, route IT, dose 25 mg/kg, 1 hr post-drug administration) of 2.48, a log reduction at 25 mg/kg ([3]; 4 h, read-out: DeltaLOG CPU 4 hr, route IT, dose 25 mg/kg, 4 hr post-drug administration) of 1.45 and a log reduction at 25 mg/kg ([3]; ip, 1 h, read-out: DeltaLOG CPU 1 hr, route IP, dose 25 mg/kg, 1 hr post-drug administration) of 1.4. For the same molecule, the “stronger killing at longer exposure intervals (difference)” value (PAM1032 [4]) was “less than 1 log”, the MIC (PAM1020 [5]) was 0.25 µg/mL (≈ 0.692 µM) and the pKa (physchem [6]) was 5.91. The “time to maximum bactericidal effect” value (PAM1032 [7]; Cmax 600 ug/ml) was 30 min, the “reduction in bacterial counts” value (PAM1032 [7]; Cmax 600 ug/ml) was 5 log and the “time to maximum bactericidal effect” value (PAM1032 [7]; Cmax 1000 ug/ml) was no more than 10 min. The “reduction in bacterial counts” value (PAM1032 [7]; Cmax 1000 ug/ml) was 5 log, the bacterial reduction (PAM1032 [7]; Cmax of both 600 and 1000 ug/ml, strain with MIC of 1 ug/ml) was no more than 99.9999% and the bacterial reduction (PAM1582 [8]) was “up to 99.99%”. For the same molecule, the “reduction in bacterial counts” value (PAM1582 [8]; Cmax 600 ug/ml) was 3 log, the “reduction in bacterial counts” value (PAM1582 [8]; Cmax 1000 ug/ml) was 4 log and the bacterial reduction (PAM1582 [8]; listed as levofloxacin) was “up to 99.999%”. The “penetration into lung tissues” value [9] was “penetrates well into lung tissues”, the “maximum observed bactericidal activity against biofilms” value [10] was 99% and the survival ([11]; 4 day treatment period) was “all animals survived”. For the same molecule, the necropsy ([11]; after the last dose) was “did not show any findings”, the “maximum killing, decrease in viable cell counts” value (PAM1020 [12]) was 5.5 log and the necropsy [13] was “did not show any findings”. The “Aerosol Tolerability and Taste” value [14] was “chemical taste, somewhat bitter,”, the MIC (PAM1582 [15]) was 32 µg/mL and the “F, % from Lung vs. IV” value ([16]; IT) was 86%. The AUC ([16]; rat, inhaled or intranasal, IT) was 12100 ng·h/mL, the AUC ([16]; rat, iv) was 10500 ng·h/mL and the half-life ([16]; rat, in vivo, inhaled or intranasal, IT, read-out: Serum t1/2 (converted)) was 24 min. The AUC(0-inf) ([16]; rat, serum, inhaled or intranasal, IT) was 3280 ng·h/mL, the survival ([17]; 28 day treatment period) was “all animals survived” and the necropsy ([17]; after the last dose) was “dose related squamous cell hyperplasia of the larynx”. The “Levofloxacin MIC” value (PAM1032 [18]) was 1 µg/mL and the “Levofloxacin MIC” value (PAM1032 [18]; listed as levofloxacin) was 1.0 µg/mL.
